Where two headings read alike, the source gives them in different places. Positions of bridges follow the written chain, without caps; N, C: chain ends. Residues, ends and D or L forms follow the SMILES beside them. No end group written: not given here.
Tests used:
[1] = test system: Pseudomonas aeruginosa type 1; assay type: cell-based; conditions: pH 5.6; for Effective Dose Bactericidal pH 5.6 P. aeruginosa Molar Concentration: Table 5
Experimental: Bactericidal activity can be evaluated against a variety of bacteria such as Pseudomonas spp including aeruginosa and P. cepacia, E. coli B, and Staphylococcus aureus. The preferred organism is P. aeruginosa. Bactericidal activity is determined by identifying the effective dose for killing as the molar concentration of the peptide which results in at least a 60% killing of the bacteria, as determined by standard methods. Preferably, the peptide has an effective dose at a concentration of about 1×10^-4 M to about 1×10^-10 M, and more preferably 1×10^-7 M to 1×10^-9M . […] The effective dose for bactericidal activity of B/PI is seen at about […] . Bactericidal activity can also be determined by calculating a lethal dose 50 (LD50) using standard methods. The LD50 is that amount of peptide or protein that kills 50% of the bacteria when measured using standard dose response methods. A bactericidal peptide preferably has an LD50 of about 10^-4 M to about 10^-9 M , more preferably about 10^-7 to 10^-9 M .
The synthetically produced peptides were assayed for bactericidal activity against Pseudomonas aeruginosa, type 1, P. cepacia ATCC 25608, E. coli B, and Staphylococcus aureus 502A by standard methods.
Pseudomonas aeruginosa type 1 is a clinical isolate maintained in the laboratory since 1972. The isolate remains a smooth strain and was serotyped by the scheme of Homma. Homma, Jpn. J. Exp. Med., 46:329 (1976). A rough strain E. coli B and S. aureus 502A were obtained from Paul Quie, University of Minnesota. The characteristics of the S. aureus strain have been described in Shinefield et al., Amer. J. Dis. Chil., 105:646 (1963). Pseudomonas cepacia ATCC 25608 was purchased from the American Type Culture Collection in 1980. S. aureus and E. coli were maintained on nutrient agar plates and the Pseudomonas strains were maintained on blood agar plates.
Pyrogen-free solutions were used throughout this assay and all methods which follow. Log phase bacteria were prepared from a culture in brain heart infusion broth as previously described except that bacteria were washed and resuspended in saline with adjustment to an optical density at 650 nm which would yield 3×10^8 CFU/ml. Bacteria were then diluted 1:10 in 0.08M citrate phosphate buffer, pH 5.6 or pH 7.0, for use in the assay. S. aureus rapidly lost viability in the pH 5.6 buffer and was studied only at pH 7.0. Bactericidal activity was determined by dose response and where an LD50 is indicated, it was determined by linear regression.

E. coli 055: B5 LPS = assay: Limulus amoebocyte lysate assay, neutralization of endotoxin; assay type: biochemical; conditions: for Effective Dose Endotoxin Neutralization (Molar Concentration): Table 8, LAL
Text: The peptide selected can also have endotoxin neutralizing activity. […] Endotoxin neutralizing activity can also be measured by calculating an inhibitory dose 50 […] using standard does response methods. An inhibitory dose 50 is that amount of peptide that can inhibit 50% of the activity of endotoxin. Endotoxin activity can also be measured by determining the amount of release of tumor necrosis factor alpha (TNFα) from a macrophage cell line or by evaluating the symptoms of shock in animals. Peptides preferably neutralized endotoxin at a molar concentration of about 1×10^-4 M to about 10^-8 M , more preferably about 10^-5 M to about 10^-6 M .
The ability of synthetic peptides to neutralize endotoxin was detected with the E-TOXATE kit manufactured by Sigma Chemicals, St. Louis, Mo. […] Peptide was incubated with LPS at room temperature for 10 minutes in 100 μl of a 1:2 dilution of pyrogen-free saline, pH 6.4. The reaction was started by addition of 100 μl of amoebocyte lysate and the final volume was 200 μl.
^a The dose of peptide required to inhibit clotting of LAL by 100%.
Each tube contained 0.04 endotoxin units of E. coli LPS.

Molecule | Effective Dose Endotoxin Neutralization (Molar Concentration) (E. coli 055: B5 LPS) | Effective Dose Bactericidal pH 5.6 P. aeruginosa Molar Concentration [1] | further results
CC[C@H](C)[C@H](NC(=O)[C@@H](N)CCCCN)C(=O)N[C@@H](CO)C(=O)NCC(=O)N[C@@H](CCCCN)C(=O)N[C@@H](Cc1c[nH]c2ccccc12)C(=O)N[C@@H](CCCCN)C(=O)N[C@@H](C)C(=O)N[C@@H](CCC(N)=O)C(=O)N[C@@H](CCCCN)C(=O)N[C@@H](CCCNC(=N)N)C(=O)N[C@@H](Cc1ccccc1)C(=O)N[C@@H](CC(C)C)C(=O)N[C@@H](CCCCN)C(=O)O [Peptide 8a, kisgkwkaqkrflk] |  |  | % Killing of 5 × 10^6 Bacteria ([1]; type 1, 6.0e-6 M): 79%
CC[C@H](C)[C@H](NC(=O)[C@H](CCCCN)NC(=O)[C@@H](N)CS)C(=O)N[C@@H](CO)C(=O)NCC(=O)N[C@@H](CCCCN)C(=O)N[C@@H](Cc1c[nH]c2ccccc12)C(=O)N[C@@H](CCCCN)C(=O)N[C@@H](C)C(=O)N[C@@H](CCC(N)=O)C(=O)N[C@@H](CCCCN)C(=O)N[C@@H](CCCNC(=N)N)C(=O)N[C@@H](Cc1ccccc1)C(=O)N[C@@H](CC(C)C)C(=O)N[C@@H](CCCCN)C(=O)O [Peptide 8b, ckisgkwkaqkrflk] |  |  | % Killing of 5 × 10^6 Bacteria ([1]; type 1, 1.5e-6 M): 88%
CSCC[C@H](NC(=O)[C@H](CCCCN)NC(=O)[C@H](CC(C)C)NC(=O)[C@H](Cc1ccccc1)NC(=O)[C@H](CCCNC(=N)N)NC(=O)[C@H](CCCCN)NC(=O)[C@H](CCC(N)=O)NC(=O)[C@H](C)NC(=O)[C@H](CCCCN)NC(=O)[C@H](Cc1c[nH]c2ccccc12)NC(=O)[C@@H](N)CCCCN)C(=O)N[C@@H](CO)C(=O)NCC(=O)O [Peptide 9a, kwkaqkrflkmsg] |  |  | % Killing of 5 × 10^6 Bacteria ([1]; type 1, 6.0e-6 M): 67%
CSCC[C@H](NC(=O)[C@H](CCCCN)NC(=O)[C@H](CC(C)C)NC(=O)[C@H](Cc1ccccc1)NC(=O)[C@H](CCCNC(=N)N)NC(=O)[C@H](CCCCN)NC(=O)[C@H](CCC(N)=O)NC(=O)[C@H](C)NC(=O)[C@H](CCCCN)NC(=O)[C@H](Cc1c[nH]c2ccccc12)NC(=O)[C@H](CCCCN)NC(=O)[C@@H](N)CS)C(=O)N[C@@H](CO)C(=O)NCC(=O)O [Peptide 9b, ckwkaqkrflkmsg] |  |  | % Killing of 5 × 10^6 Bacteria ([1]; type 1, 1.5e-6 M): 96%
CC(C)C[C@@H]1NC(=O)[C@H](Cc2ccccc2)NC(=O)[C@H](CCCNC(=N)N)NC(=O)[C@H](CCCCN)NC(=O)[C@H](CCC(N)=O)NC(=O)[C@H](C)NC(=O)[C@H](CCCCN)NC(=O)[C@H](Cc2c[nH]c3ccccc23)NC(=O)[C@H](CCCCN)NC(=O)[C@@H](N)CSSC[C@@H](C(=O)O)NC(=O)[C@H](CCCCN)NC1=O [cyclic 20a] |  |  | % Killing of 5 × 10^6 Bacteria ([1]; type 1, 3.0e-5 M): 89%
CC(C)C[C@@H]1NC(=O)[C@H](Cc2ccccc2)NC(=O)[C@H](CCCCN)NC(=O)[C@@H](NC(=O)[C@H](CCCCN)NC(=O)[C@@H](NC(=O)[C@@H](N)CCCCN)[C@@H](C)O)CSSC[C@@H](C(=O)O)NC(=O)[C@H](CCCCN)NC(=O)[C@H](CCCCN)NC1=O [cyclic 25, reference compound] (H-KTKCKFLKKC-OH; disulfide 4-10) |  |  | % Killing of 5 × 10^6 Bacteria ([1]; type 1, 1.5e-5 M): 73%
CC[C@H](C)[C@@H]1NC(=O)[C@H](CCCCN)NC(=O)[C@@H](N)CSSC[C@@H](C(=O)O)NC(=O)[C@H](Cc2ccccc2)NC(=O)[C@H](CC(N)=O)NC(=O)CNC(=O)[C@H](CO)NC(=O)[C@H](CCSC)NC(=O)[C@H](CCCCN)NC(=O)[C@H](CC(C)C)NC(=O)[C@H](Cc2ccccc2)NC(=O)[C@H](CCCNC(=N)N)NC(=O)[C@H](CCCCN)NC(=O)[C@H](CCC(N)=O)NC(=O)[C@H](C)NC(=O)[C@H](CCCCN)NC(=O)[C@H](Cc2c[nH]c3ccccc23)NC(=O)[C@H](CCCCN)NC(=O)CNC(=O)[C@H](CO)NC1=O [cyclic 36] (H-CKISGKWKAQKRFLKMSGNFC-OH; disulfide 1-21) |  |  | % Killing of 5 × 10^6 Bacteria ([1]; type 1, 1.5e-7 M): 76%
CC[C@H](C)[C@H](NC(=O)[C@H](CCCCN)NC(=O)[C@@H](N)CSSC[C@H](N)C(=O)N[C@@H](CCCCN)C(=O)N[C@H](C(=O)N[C@@H](CO)C(=O)NCC(=O)N[C@@H](CCCCN)C(=O)N[C@@H](Cc1c[nH]c2ccccc12)C(=O)N[C@@H](CCCCN)C(=O)N[C@@H](C)C(=O)N[C@@H](CCC(N)=O)C(=O)N[C@@H](CCCCN)C(=O)N[C@@H](CCCNC(=N)N)C(=O)N[C@@H](Cc1ccccc1)C(=O)N[C@@H](CC(C)C)C(=O)N[C@@H](CCCCN)C(=O)O)[C@@H](C)CC)C(=O)N[C@@H](CO)C(=O)NCC(=O)N[C@@H](CCCCN)C(=O)N[C@@H](Cc1c[nH]c2ccccc12)C(=O)N[C@@H](CCCCN)C(=O)N[C@@H](C)C(=O)N[C@@H](CCC(N)=O)C(=O)N[C@@H](CCCCN)C(=O)N[C@@H](CCCNC(=N)N)C(=O)N[C@@H](Cc1ccccc1)C(=O)N[C@@H](CC(C)C)C(=O)N[C@@H](CCCCN)C(=O)O [dimer 8b] |  |  | % Killing of 5 × 10^6 Bacteria ([1]; type 1, 1.5e-6 M): 52%
anikisgkwk [Peptide 31] | 220 µM | 3.0 × 10^-5 M | % Killing of 5 × 10^6 Bacteria ([1]; P. aeruginosa, 3.0 × 10^-5 M): 53%
ckisgkwkaqkrflkmsgnfc [Peptide 36] | 750 µM | 1.2 × 10^-4 M | % Killing of 5 × 10^6 Bacteria ([1]; P. aeruginosa, 1.2 × 10^-4 M): 39%
ckwkaqkrflkc (CKWKAQKRFLKC; not fully specified (bridges); also: cyclic, kind and places of ring not given here) [Peptide 20a] | -- (not active at concentrations of 4.5 × 10^-4 M or less) | 3.0 × 10^-6 M | % Killing of 5 × 10^6 Bacteria ([1]; P. aeruginosa, 3.0 × 10^-6 M): 76%
cnanikisgkwkaqkrflkmsgnfdlsic [Peptide 23] | 30 µM | 3 × 10^-7 M | % Killing of 5 × 10^6 Bacteria ([1]; P. aeruginosa, 3 × 10^-7 M): 67%
flkmsgnfdl [Peptide 34] | 750 µM | -- (not active at concentrations of 1.2 × 10^-4 M or less) | 
iktkkflkkt [Peptide 24, reference compound] | -- (not active at concentrations of 4.5 × 10^-4 M or less) | 3.0 × 10^-5 M | % Killing of 5 × 10^6 Bacteria ([1]; P. aeruginosa, 3.0 × 10^-5 M): 72%
isnanikisg [Peptide 30] | 450 µM | -- (not active at concentrations of 1.2 × 10^-4 M or less) | 
kisgkwkaqk [Peptide 32] | 450 µM | 1.25 × 10^-4 M | % Killing of 5 × 10^6 Bacteria ([1]; P. aeruginosa, 1.25 × 10^-4 M): 33%
kisgkwkaqkrflkmsgnf [Peptide 35] | 450 µM | 1.5 × 10^-7 M | neutralization of endotoxin in the LAL (in words) (E. coli 055: B5 LPS; highest concentration tested 4.5×10^-4 M): did not neutralize endotoxin; % Killing of 5 × 10^6 Bacteria ([1]; P. aeruginosa, 1.5 × 10^-7 M): 58%
kkkafrlakq [Peptide 28] | -- (not active at concentrations of 4.5 × 10^-4 M or less) | 3.0 × 10^-5 M | % Killing of 5 × 10^6 Bacteria ([1]; P. aeruginosa, 3.0 × 10^-5 M): 68%; bacterial killing activity compared with parent peptide (in words) ([1]; P. aeruginosa): little or no effect
kkkffrlakq [Peptide 27] | -- (not active at concentrations of 4.5 × 10^-4 M or less) | 3.0 × 10^-5 M | % Killing of 5 × 10^6 Bacteria ([1]; P. aeruginosa, 3.0 × 10^-5 M): 49%; bacterial killing activity compared with parent peptide (in words) ([1]; P. aeruginosa): little or no effect

Reference: patent US5786324A, “Synthetic peptides with bactericidal activity and endotoxin neutralizing activity for gram negative bacteria and methods for their use” (priority 1994, dated 1998)
